Assay results as given in ChEMBL document CHEMBL5390208, “Bioactive Isoquinoline Alkaloids with Diverse Skeletons from Fissistigma polyanthum” (J Nat Prod, 2023).
Activity calls are given as the source filed them. The calls are words filed in the database; no cut-off is given here.

Key:
Acetylcholinesterase = Acetylcholinesterase (Homo sapiens, UniProt P22303); assay: Inhibition of AChE (unknown origin) using ATCI as substrate preincubated for 15 min followed by substrate addition measured after 40 min by Ellman's method
Sequence of Acetylcholinesterase (P22303 whole entry): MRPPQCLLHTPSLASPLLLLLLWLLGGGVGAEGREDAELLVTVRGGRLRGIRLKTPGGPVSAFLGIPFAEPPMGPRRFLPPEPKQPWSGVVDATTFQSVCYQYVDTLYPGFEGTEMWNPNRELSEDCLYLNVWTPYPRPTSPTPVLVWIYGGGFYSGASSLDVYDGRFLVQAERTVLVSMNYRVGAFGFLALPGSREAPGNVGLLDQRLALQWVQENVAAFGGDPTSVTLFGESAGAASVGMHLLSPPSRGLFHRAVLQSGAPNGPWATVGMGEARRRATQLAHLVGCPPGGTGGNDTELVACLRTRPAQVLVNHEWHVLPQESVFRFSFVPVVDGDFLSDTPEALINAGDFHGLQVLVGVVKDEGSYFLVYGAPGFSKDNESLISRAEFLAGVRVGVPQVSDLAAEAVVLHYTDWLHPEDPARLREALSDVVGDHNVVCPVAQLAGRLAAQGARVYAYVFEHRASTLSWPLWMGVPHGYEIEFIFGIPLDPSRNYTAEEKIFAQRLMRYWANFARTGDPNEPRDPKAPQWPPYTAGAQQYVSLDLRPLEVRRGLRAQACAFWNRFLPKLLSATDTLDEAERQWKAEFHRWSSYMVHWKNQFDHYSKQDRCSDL

Cholinesterase = Cholinesterase (Homo sapiens, UniProt P06276); assay: Inhibition of BChE (unknown origin) using BTCI as substrate preincubated for 15 min followed by substrate addition measured after 40 min by Ellman's method
Sequence of Cholinesterase (P06276 whole entry): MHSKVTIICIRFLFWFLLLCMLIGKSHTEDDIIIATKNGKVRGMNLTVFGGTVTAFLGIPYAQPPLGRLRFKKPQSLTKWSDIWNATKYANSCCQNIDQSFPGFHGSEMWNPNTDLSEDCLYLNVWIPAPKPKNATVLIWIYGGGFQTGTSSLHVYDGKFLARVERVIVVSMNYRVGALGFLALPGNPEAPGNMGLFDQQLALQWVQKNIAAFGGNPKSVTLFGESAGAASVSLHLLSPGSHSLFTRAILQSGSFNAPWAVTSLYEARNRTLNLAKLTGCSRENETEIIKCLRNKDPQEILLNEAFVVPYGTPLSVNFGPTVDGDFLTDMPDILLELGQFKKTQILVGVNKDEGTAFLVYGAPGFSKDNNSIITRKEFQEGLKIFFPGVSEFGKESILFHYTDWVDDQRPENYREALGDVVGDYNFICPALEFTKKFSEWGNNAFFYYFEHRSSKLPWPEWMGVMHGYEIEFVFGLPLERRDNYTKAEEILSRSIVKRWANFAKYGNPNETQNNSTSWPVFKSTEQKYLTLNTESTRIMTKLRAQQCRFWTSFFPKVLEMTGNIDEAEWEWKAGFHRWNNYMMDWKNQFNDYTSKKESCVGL

[1] = Selectivity ratio, ratio of inhibition of BChE (unknown origin) to inhibition of AChE (unknown origin)
[2] = target: T1, Amyloid-beta precursor protein (Homo sapiens, UniProt P05067); assay: Inhibition of amyloid beta 42 (unknown origin) aggregation at 50 uM incubated for 24 hrs by ThT assay relative to control
T1 sequence (P05067 whole entry): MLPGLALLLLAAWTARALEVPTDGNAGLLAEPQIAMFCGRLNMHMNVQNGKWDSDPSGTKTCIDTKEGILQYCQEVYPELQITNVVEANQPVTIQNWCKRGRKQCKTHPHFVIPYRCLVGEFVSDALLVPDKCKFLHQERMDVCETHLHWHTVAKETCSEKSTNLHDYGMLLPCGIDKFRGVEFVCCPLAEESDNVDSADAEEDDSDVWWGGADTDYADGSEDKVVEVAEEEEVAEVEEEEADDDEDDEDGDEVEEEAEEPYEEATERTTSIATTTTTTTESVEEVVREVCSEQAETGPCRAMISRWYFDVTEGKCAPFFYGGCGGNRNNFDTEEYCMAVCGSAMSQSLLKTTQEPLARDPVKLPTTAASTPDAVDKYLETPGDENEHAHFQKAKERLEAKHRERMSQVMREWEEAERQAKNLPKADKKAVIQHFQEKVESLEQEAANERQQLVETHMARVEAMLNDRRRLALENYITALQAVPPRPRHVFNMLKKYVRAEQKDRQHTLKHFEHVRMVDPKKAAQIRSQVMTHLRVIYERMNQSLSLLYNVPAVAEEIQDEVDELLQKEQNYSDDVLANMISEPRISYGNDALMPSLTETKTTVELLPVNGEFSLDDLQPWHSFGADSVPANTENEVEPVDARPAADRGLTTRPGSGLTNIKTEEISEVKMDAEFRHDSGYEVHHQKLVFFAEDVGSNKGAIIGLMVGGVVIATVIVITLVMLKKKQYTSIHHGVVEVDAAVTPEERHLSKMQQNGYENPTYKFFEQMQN

[3] = target: T1, Amyloid-beta precursor protein; assay: Inhibition of amyloid beta 42 (unknown origin) aggregation incubated for 24 hrs by ThT assay
[4] = Antioxidant activity assessed as ABTS radical scavenging activity incubated for 10 min by spectrophotometric analysis; assay type: functional
[5] = target: T1, Amyloid-beta precursor protein; assay: Inhibition of amyloid beta 42 (unknown origin) aggregation assessed as reduction in amyloid beta fibril formation incubated for 72 hrs by Congo Red dye based UV- spectrophotometric analysis

SMILES	IC50 (Acetylcholinesterase) [µM]	IC50 (Cholinesterase) [µM]	Ratio IC50 [1]	inhibition [2]	IC50 [3] [µM]	IC50 [4] [µM]	inhibition [5]
O=C1C(=O)N2CCc3cc4c(c5c3c2c1c1ccccc15)OCO4	51.3	13.7	0.3	47.6%	> 50	> 50	–
COc1ccc2c(c1)C(=O)c1nccc3cc4c(c-2c13)OCO4 [ATHEROSPERMIDINE]	10.9	> 300	> 27.5	86.2%	31.9	> 50	Active
COc1ccc2c(c1)C[C@@H]1c3c(cc4c(c3-2)OCO4)CCN1C	26.2	36.4	1.4	38.2%	> 50	> 50	–
COc1cc(O)c2c(c1)C[C@@H]1c3c(cc4c(c3-2)OCO4)CC[N@+]1(C)[O-]	> 300	> 300	–	37.9%	> 50	9.9	–
Cc1c(C)c2c(c(C)c1O)CCC(C)(C(=O)O)O2 (stereo unspecified) [TROLOX]	–	–	–	–	–	11	–
COc1cc2c(c(O)c1OC)CC[n+]1cc3c(OC)c(O)ccc3cc1-2	16.4	> 300	> 18.3	inactive	–	> 50	–
COc1ccc2c(c1)C[C@H]1NCCc3cc4c(c-2c31)OCO4	126	68.5	0.5	28%	> 50	> 50	–
COC1=C(CC(=O)CCc2ccccc2)C(=O)O[C@@H]1O	> 300	> 300	–	74.4%	26.6	> 50	Active
COc1cc2c(c(O)c1OC)CCN1Cc3c(ccc(O)c3OC)C[C@@H]21	89	> 300	> 3.4	inactive	–	> 50	–
COC1=CC(=O)c2c(cc3c4c(cc5c(c24)OCO5)CCN3C)C1=O	221	83.5	0.4	30.7%	> 50	> 50	–
COc1ccc(C[C@H]2c3c(ccc(OC)c3O)CCN2C)cc1	25.6	33	1.3	26.6%	> 50	38.3	–
COc1cc(O)c2c(c1)C[C@@H]1c3c(cc4c(c3-2)OCO4)CC[N@@+]1(C)[O-]	> 300	> 300	–	32.8%	> 50	> 50	–
COc1cc(O)c2c(c1)C[C@@H]1c3c(cc4c(c3-2)OCO4)CCN1C	85	94.5	1.1	15.1%	> 50	14.8	–
COc1cc2c(c(O)c1OC)CC[N@+]1(C)Cc3c(ccc(O)c3OC)C[C@@H]21	131	> 300	> 2.3	inactive	–	43.6	–
COc1cc(O)cc2c1-c1c3c(cc4c1[C@@H](C2)N(C)CC4)OCO3	> 300	> 300	–	76%	35.7	16.5	Active
COc1cc2c(cc1O)CC[n+]1cc3c(OC)c(O)ccc3cc1-2	17.8	119	6.7	30%	50	26.5	–
COc1cc(O)c2c(c1)C[C@H]1NCCc3c(OC)c4c(c-2c31)OCO4	162	141	0.9	44.5%	> 50	13.5	–
COc1cc2c(cc1OC)[C@@H]1Cc3ccc(O)c(OC)c3CN1CC2	211	124	0.6	10.7%	> 50	> 50	–
COc1cc(O)c2c(c1)C[C@H]1NCCc3cc4c(c-2c31)OCO4	> 300	> 300	–	10.2%	> 50	> 50	–
COc1ccc2c(c1OC)c1c3c4c(cc5c(c42)OCO5)CCN3C(=O)C1=O	33	251	7.6	10.9%	> 50	> 50	–
COc1cc2c(cc1O)[C@@H]1Cc3ccc(OC)c(O)c3CN1CC2 [SCOULERINE]	143	61.3	0.4	3.3%	> 50	43.8	–
